Results on two compounds are retold here after patent publication US5149631A, “Compound marked with tritium, its preparation and its use in the location of nuclear receptors of retinoids” (Centre International de Recherches Dermatologiques Galderma …, priority 1989, dated 1992).

Structures are written as SMILES.

In assay [1] the test system is retinoic acid nuclear receptors (RARs). Briefly: Fixing on nuclear receptors RARs in nucleosol of F9 cells, analysed by HPSEC. The conditions noted are these: for molecules of ligand fixed to the RARs per cell (HPSEC peak surface standardized to number of cells): F9 cells, 20 nM tritiated ligand. Type of assay: binding, murin. The procedure:
Cultures of F9 cells of murin embryonic carcinoma (normally four 90 mm dishes containing in total 4-7×10^7 cells per incubation condition) were washed once with pBS (saline phosphate buffer) and incubated for 3 hours in a medium, without serum, supplemented with the marked retinoic homolog (to verify the specifity). The cells were then detached with a trypsin-EDTA mixture and numbered with a Burker hemocytometer. […] 50 μl of marked extract were injected on a 9×250 mm GF 250 column (Dupont de Nemours). The elution was carried out in a buffer 0.3M KH2 PO4, pH 7.8 at a rate of 1 ml/min. The protein content was followed by measuring the optical density at 280 nm. 28 fractions of 0.3 ml each were collected and counted in Picofluor (Packard) scintillating agent. For each retinoid concentration, the number of bonded molecules was determined using the surface of the radioactivity peak and the calculated concentration of demisaturation (C50). The molecular weight calibration of the column was carried out using human albumin (67 kDa), ovalbumin (45 kDa) and myoglobin (16.8 kDa). The dose-response curves and the competition curves were analyzed on a computer through nonlinear regression using the various forms of the Clark equation.

Assay [2] deals with T1, CRABP (cellular retinoic acid binding protein) (Rattus norvegicus, UniProt P62966).
T1 construct: rat testicle cytosol containing CRABP; from tissue; host or cells: rat testicle homogenate / cytosol
T1 sequence (P62966 whole entry): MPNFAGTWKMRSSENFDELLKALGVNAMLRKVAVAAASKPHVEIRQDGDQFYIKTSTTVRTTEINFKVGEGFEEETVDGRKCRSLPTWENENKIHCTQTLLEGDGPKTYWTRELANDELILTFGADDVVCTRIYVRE
In words: Direct fixing on CRABP binding protein in rat testicle cytosol, Sephadex G25 separation. The procedure: The difference ( -- ) represents the specific bond.
The total fixing non-specific+specific ( .circle.-- .circle.) is obtained by incubation of increasing concentration (up to a maximum of […]) of the claimed compound with a constant quantity (0.3 ml) of a rat testicle homogenate (CRABP-rich organ). The non-specific fixing of the tritiated compound is determined in parallel, by measuring the fixing with increasing concentrations of the radioactive ligand in the presence of a large excess (1 μm) of cold homolog ligand (.quadrature.--.quadrature.). An incubation time of two hours is necessary for the establishment of balanced conditions.
The elution is done directly in scintillation tubes and the radioactivity is measured by counting.
The difference between the total fixing curve ( .circle.-- .circle.) and non-specific fixing (.quadrature.--.quadrature.) gives the specific fixing curve ( -- ). Analysis of this curve provides the dissociation constant at equilibrium (Kd) which is the concentration of the product required for 50% saturation of CRABP. This constant is a measurement of the affinity of the ligand for its bonding protein, Kd being inversely proportional to affinity (the smaller the Kd, the greater the affinity).

For the compound `[3H]c1cc(-c2ccc3cc(C(=O)O)ccc3c2[3H])cc(C23CC4CC(CC(C4)C2)C3)c1OC` [Example 1, 6-[3-(1-adamantyl)-4-methoxyphenyl]-2-naphthoic acid marked with tritium], the “specificity of fixing on RARs (about 45 kDa radioactivity peak)” value in assay [1] (F9 cells incubated with 20 nM tritiated ligand, co-incubation with an excess of 1000 times of cold compound I) is “specific”. Also, the “molecules of ligand fixed to the RARs per cell (HPSEC peak surface standardized to number of cells)” value in assay [1] is given as “approximately 4,000 molecules per cell”. Moreover, the “specific fixing on CRABP” value in assay [2] (rat testicle homogenate, increasing concentrations of tritiated ligand, with or without 1 μm cold homolog ligand, two hours incubation) is reported as “no specific fixing”.

For `CC1=C(/C=C/C(C)=C/C=C/C(C)=C/C(=O)O)C(C)(C)CCC1` [retinoic acid], the “fixing on RARs in the presence of excess cold ligand” value in assay [1] (F9 cells incubated with 20 nM tritiated retinoic acid, excess of 100 times of cold retinoic acid) is “inhibited”. Besides, the “molecules of ligand fixed to the RARs per cell (HPSEC peak surface standardized to number of cells)” value in assay [1] is listed as “approximately 4,000 molecules per cell”. Also, in assay [2] (rat testicle cytosol), the “nature of the specific fixing on CRABP” value was “saturable and reversible”. Also, in assay [2] (rat testicle cytosol, in the range of concentrations employed), the “non-specific fixing as share of the total fixing” value is reported as “less than 20%”.
